Measured values reported in US4863748A, “Dietary products and uses comprising methylsulfonylmethane” (priority 1986, dated 1989).
Where a name gives a salt, the structure may show the parent alone.

What was measured:
arthritis = assay: Canine arthritis and other sources of pain (Example 30); format: in vivo, dog; settings: prior treatment
Description: In each case the methylsulfonylmethane was admixed with the animal's food just prior to feeding.
This animal, although owned by a veterinarian, had not responded to a variety of therapeutic regimens over the previous 12 months. Methylsulfonylmethane was given to this dog in its food at a level of 1.5 grams b.i.d. X 1 month.
It was mobile but walked with obvious difficulty and discomfort. The animals was refractory to both cortisone and phenylbutazone.
The animal had not responded to either cortisone nor phenylbutazone and its condition was deteriorating rapidly. Methylsulfonylmethane was included in its diet at 1 gm/day b.i.d. After one week, the dog appeared to be pain-free.

[1] = system: pain in the mid-back region; assay: Acute pain, comparison with codeine, urinary calculi, subject three (Example 32); format: in vivo, human; settings: for pain relief: subject three
Description: Methylsulfonylmethane was compared with codeine for the control of pain in subject three, a person who awakened in the early morning with excruciating pain in the mid-back region, so intense it was difficult to pin-point a specific region. […] Analgesic requirements were 1/2 grain codeine with aspirin every two hours. […] The intense pain returned. The subject was given 1.5 g of methylsulfonylmethane dissolved in 1/2 glass of warm water. At 0.5 hours after taking the methylsulfonylmethane, the pain had essentially disappeared. Methylsulfonylmethane (1.5 g/day) was continued until the afternoon of the third day, when X-ray confirmed that the calculi yet obstructed the ureter. Subject was switched again to codeine with aspirin (1/2 grain×2 hours). […] Methylsulfonylmethane was again administered (1.5 g×4 hours). On day 5 the calculi passed. Recovery was uneventful, requiring neither codeine, methylsulfonylmethane,nor a urinary tract antimicrobial.

platelet count = assay: Low platelet count in lupus erythematosus (Example 22); format: in vivo, human; settings: adult female, after prednisone therapy, before methylsulfonylmethane
Description: Methylsulfonylmethane administered orally raised the platelet count of an adult with lupus erythematosus from 84,000 (after prednisone therapy) to 200,000 over a 2-year period (1.5 gm/day in 3 doses).

[2] = system: scarification of the right cheek pouch; assay: Wound healing of the cheek pouch in hamsters (Example 17); format: in vivo; settings: 0.1 gm/kg methylsulfonylmethane alone or 100 mg ascorbic acid alone in feed; controls day 4 and 5
Description: Four sets of 5 hamsters were subject to scarification of the right cheek pouch, using standard methodology. One week prior to pouch injury, one set was started on a daily regimen of 0.1 gm/kg of methylsulfonylmethane in the diet of standard hamster feed, a second group was given 0.1 gm/kg of methylsulfonylmethane plus 100 mg of ascorbic acid in the same feed, a third group was given only 100 mg of ascorbic acid in the same feed, and the last group, fed only the feed, was held as control. Daily post-scarification examination was made to determine the rate of injury repair.

Trichomonas vaginalis = assay: Treatment of Trichomonas vaginalis infection in subjects (Example 28(a)); format: in vivo, human; settings: human, in vivo
Description: Both had prior courses of therapy for this disorder without adequate response. […]
One subject was later reinfected by their sexual partner but the reinfection was cleared employing a daily douche of 5% aqueous methylsulfonylmethane for one week.

C[C@]12CCC(=O)C=C1CC[C@@H]1[C@@H]2C(=O)C[C@@]2(C)[C@H]1CC[C@]2(O)C(=O)CO [cortisone, reference compound]
response, Dog A (arthritis): not responsive
response, Dog C (arthritis): refractory
response, Dog D (arthritis): not responded

CCCCC1C(=O)N(c2ccccc2)N(c2ccccc2)C1=O [phenylbutazone, reference compound]
response, Dog A (arthritis): not responsive
response, Dog C (arthritis): refractory
response, Dog D (arthritis): not responded

COc1ccc2c3c1O[C@H]1[C@@H](O)C=C[C@H]4[C@@H](C2)N(C)CC[C@@]341 [codeine]
mental confusion ([1]; day two, 1/2 grain codeine with aspirin every two hours): mental confusion
pain relief [1]: acceptable relief

C[C@]12C=CC(=O)C=C1CC[C@@H]1[C@@H]2C(=O)C[C@@]2(C)[C@H]1CC[C@]2(O)C(=O)CO [prednisone, reference compound]
platelet count (platelet count): 84,000

O=C1O[C@H]([C@@H](O)CO)C(O)=C1O [vitamin C, ascorbic acid, reference compound]
day on which the 36-hour combination healing result was matched [2]: three

CC(=O)Oc1ccccc1C(=O)O [Aspirin]
pain relief [1]: ineffective

Cc1ncc([N+](=O)[O-])n1CCO [metronidazole HCL, reference compound]
stomach upset and nausea (Trichomonas vaginalis): side effect experienced by one subject
